Results reported in patent US20210121527A1, “METHODS OF TREATING MINIMAL RESIDUAL CANCER” (ICAHN SCHOOL OF MEDICINE AT MOUNT SINAI, priority 2018, published 2021).

Columns and labels:
Experiment in all cases: DiscoveRx scanMAX kinase profiling
Assay type in all cases: binding
SRC = biological target: T1, SRC (Homo sapiens, UniProt P12931); settings: read-out: Direct inhibitory activity on SRC (KINOMEscan)
T1 construct: purchased DiscoverX (San Diego, Calif.) scanMAX
Experimental: (§1) Biochemical assays: Recombinant human EIF2AK3 (PERK) catalytic domain (amino acids 536-1116; Cat # PV5107), GFP-eIF2a (Cat # PV4809) substrate, and Terbium-labelled phospho-eIF2a antibody (Cat # PR8956B) were purchased from Invitrogen (Carlsbad, Calif.). HIS-SUMO-GCN2 catalytic domain (amino acids 584-1019) was expressed and purified from E. coli. TR-FRET kinase assays were performed in the absence or presence of inhibitors in a reaction buffer consisting of 50 mM HEPES, pH 7.5, 10 mMMgCl2, 1.0 mM EGTA, and 0.01% Brij-35, and 100-200 nM GFP-eIF2a substrate. […] Following the addition of test compound, the reaction was initiated by addition of enzyme and incubated at room temperature for 45 minutes. The reaction was stopped by addition of EDTA to a final concentration of 10 mM and Terbium-labelled phospho-eIF2α antibody was added at a final concentration of 2 nM and incubated for 90 minutes. The resulting fluorescence was monitored in an EnVison® Multilabel reader (PerkinElmer, Waltham, Mass.). TR-FRET ratios and the resulting IC50 values were determined from the fitted inhibition curves. Biochemical specificity profiling was performed at Cerep (Redmond, Wash.) and DiscoverX (San Diego, Calif.).

AKT3 = biological target: T2, AKT3 (Homo sapiens, UniProt Q9Y243); settings: read-out: Direct inhibitory activity on AKT3 (KINOMEscan)
T2 construct: purchased DiscoverX (San Diego, Calif.) scanMAX
T2 sequence (Q9Y243 whole entry): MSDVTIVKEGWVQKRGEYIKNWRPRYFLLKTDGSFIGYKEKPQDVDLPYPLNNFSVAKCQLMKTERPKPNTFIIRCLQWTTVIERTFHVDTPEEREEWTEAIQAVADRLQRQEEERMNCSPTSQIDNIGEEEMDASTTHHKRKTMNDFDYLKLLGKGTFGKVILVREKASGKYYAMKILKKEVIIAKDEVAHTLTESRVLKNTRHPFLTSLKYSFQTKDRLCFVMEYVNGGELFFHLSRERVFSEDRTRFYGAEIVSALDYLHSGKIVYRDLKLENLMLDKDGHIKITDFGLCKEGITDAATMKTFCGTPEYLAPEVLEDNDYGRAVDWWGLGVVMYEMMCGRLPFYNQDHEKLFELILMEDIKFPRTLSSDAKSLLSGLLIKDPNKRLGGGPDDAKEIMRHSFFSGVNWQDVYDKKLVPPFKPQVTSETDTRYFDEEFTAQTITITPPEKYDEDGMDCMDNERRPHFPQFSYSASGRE
Experimental: as §1

PIK3C2B = biological target: T3, PIK3C2B (Homo sapiens, UniProt O00750); settings: read-out: Direct inhibitory activity on PIK3C2B (KINOMEscan)
T3 construct: purchased DiscoverX (San Diego, Calif.)
T3 sequence (O00750 whole entry): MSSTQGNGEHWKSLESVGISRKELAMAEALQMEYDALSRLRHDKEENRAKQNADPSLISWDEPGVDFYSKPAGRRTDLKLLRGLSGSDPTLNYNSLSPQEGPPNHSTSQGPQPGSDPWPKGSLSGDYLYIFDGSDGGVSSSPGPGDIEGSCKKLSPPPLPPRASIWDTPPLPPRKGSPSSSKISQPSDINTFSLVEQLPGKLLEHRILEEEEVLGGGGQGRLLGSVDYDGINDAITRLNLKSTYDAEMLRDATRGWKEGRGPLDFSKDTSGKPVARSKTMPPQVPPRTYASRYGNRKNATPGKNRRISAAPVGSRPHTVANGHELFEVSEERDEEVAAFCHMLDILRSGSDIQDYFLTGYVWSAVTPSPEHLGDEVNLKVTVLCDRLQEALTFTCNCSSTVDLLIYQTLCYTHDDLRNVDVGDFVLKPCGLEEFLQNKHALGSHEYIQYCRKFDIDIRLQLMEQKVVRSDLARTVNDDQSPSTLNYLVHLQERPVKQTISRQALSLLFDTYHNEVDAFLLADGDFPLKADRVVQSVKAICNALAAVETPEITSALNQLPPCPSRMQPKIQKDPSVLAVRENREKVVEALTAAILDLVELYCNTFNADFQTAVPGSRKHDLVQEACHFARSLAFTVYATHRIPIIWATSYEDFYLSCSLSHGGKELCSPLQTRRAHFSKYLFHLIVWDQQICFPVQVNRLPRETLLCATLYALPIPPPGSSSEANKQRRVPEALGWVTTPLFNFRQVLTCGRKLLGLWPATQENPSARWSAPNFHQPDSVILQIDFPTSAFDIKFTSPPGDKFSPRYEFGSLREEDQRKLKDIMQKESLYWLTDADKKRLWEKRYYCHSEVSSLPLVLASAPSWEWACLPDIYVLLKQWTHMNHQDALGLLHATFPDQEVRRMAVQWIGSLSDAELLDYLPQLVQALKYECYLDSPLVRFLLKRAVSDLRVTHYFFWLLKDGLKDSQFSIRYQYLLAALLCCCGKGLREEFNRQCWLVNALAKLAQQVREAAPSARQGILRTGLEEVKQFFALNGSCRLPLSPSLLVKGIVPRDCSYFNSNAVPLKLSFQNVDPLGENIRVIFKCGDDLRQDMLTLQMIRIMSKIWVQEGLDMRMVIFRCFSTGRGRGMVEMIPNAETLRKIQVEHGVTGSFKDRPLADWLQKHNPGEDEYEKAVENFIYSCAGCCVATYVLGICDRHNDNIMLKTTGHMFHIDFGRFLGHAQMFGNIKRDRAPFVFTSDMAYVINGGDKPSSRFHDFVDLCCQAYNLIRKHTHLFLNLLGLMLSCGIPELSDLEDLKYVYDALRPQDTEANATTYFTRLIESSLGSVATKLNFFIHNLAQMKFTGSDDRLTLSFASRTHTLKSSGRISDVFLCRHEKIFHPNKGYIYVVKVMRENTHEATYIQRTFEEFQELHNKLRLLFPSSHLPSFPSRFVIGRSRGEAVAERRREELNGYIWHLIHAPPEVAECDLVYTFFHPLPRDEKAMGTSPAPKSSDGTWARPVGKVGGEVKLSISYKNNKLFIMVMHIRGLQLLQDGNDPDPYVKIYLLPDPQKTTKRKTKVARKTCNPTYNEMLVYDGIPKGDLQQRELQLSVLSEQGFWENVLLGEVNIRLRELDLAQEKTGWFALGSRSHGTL
Experimental: as §1

ERK3 (MAPK6) = biological target: T4, ERK3 (MAPK6) (Homo sapiens, UniProt Q16659); settings: read-out: Direct inhibitory activity on ERK3 (KINOMEscan)
T4 construct: purchased DiscoverX (San Diego, Calif.) scanMAX
T4 sequence (Q16659 whole entry): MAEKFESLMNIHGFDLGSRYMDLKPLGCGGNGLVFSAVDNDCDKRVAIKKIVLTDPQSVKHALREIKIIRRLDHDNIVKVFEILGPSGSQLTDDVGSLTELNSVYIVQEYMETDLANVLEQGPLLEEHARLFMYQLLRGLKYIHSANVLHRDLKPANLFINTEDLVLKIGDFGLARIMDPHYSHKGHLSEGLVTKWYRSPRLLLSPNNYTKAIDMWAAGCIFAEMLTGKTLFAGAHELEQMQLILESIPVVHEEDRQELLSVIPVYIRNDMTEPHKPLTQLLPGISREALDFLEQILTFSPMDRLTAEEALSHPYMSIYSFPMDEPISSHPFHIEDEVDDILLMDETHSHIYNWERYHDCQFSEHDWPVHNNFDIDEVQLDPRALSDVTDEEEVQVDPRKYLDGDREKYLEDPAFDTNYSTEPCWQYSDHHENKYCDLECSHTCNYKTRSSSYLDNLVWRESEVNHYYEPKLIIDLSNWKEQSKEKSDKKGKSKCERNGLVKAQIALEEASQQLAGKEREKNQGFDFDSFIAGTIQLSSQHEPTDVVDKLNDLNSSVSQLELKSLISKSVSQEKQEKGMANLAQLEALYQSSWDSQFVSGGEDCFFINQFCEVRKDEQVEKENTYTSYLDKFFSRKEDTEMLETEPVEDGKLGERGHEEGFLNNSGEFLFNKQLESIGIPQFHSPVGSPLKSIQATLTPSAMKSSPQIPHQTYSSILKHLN
Experimental: as §1

ERK8 (MAPK15) = biological target: T5, ERK8 (MAPK15) (Homo sapiens, UniProt Q8TD08); settings: read-out: Direct inhibitory activity on ERK8 (KINOMEscan)
T5 construct: purchased DiscoverX (San Diego, Calif.) scanMAX
T5 sequence (Q8TD08 1-544): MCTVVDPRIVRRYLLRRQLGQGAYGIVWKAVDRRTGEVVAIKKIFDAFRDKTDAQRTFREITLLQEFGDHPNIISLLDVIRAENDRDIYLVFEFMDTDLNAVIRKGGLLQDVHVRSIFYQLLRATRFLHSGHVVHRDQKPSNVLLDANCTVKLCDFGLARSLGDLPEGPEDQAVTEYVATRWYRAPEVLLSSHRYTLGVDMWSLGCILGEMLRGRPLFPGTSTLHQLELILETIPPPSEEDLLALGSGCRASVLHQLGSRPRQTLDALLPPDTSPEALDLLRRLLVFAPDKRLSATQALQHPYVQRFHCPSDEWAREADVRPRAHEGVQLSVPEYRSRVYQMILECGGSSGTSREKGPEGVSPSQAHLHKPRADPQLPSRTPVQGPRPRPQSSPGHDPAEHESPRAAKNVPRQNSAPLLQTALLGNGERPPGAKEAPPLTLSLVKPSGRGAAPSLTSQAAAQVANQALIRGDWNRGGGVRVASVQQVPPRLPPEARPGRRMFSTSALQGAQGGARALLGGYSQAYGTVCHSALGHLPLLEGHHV
Experimental: as §1

S6K1 (RPS6KB1) = biological target: T6, S6K1 (RPS6KB1) (Homo sapiens, UniProt P23443); settings: read-out: Direct inhibitory activity on S6K1 (KINOMEscan)
T6 construct: purchased DiscoverX (San Diego, Calif.) scanMAX
T6 sequence (P23443 whole entry): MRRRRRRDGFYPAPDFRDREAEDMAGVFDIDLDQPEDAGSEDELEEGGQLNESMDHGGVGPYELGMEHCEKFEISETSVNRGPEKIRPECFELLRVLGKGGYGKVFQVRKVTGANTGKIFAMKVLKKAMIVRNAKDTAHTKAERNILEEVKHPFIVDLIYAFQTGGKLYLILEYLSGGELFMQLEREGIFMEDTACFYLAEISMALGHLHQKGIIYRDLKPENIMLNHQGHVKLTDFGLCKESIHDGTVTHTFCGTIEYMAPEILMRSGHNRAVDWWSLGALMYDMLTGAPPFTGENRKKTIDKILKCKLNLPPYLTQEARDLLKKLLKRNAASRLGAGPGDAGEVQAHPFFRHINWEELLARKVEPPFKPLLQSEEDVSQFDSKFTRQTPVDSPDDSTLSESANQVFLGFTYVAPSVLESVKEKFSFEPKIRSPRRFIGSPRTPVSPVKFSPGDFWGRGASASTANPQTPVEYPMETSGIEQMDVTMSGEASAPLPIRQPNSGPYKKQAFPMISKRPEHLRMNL
Experimental: as §1

ERK1 (MAPK3) = biological target: T7, ERK1 (MAPK3) (Homo sapiens, UniProt P27361); settings: read-out: Direct inhibitory activity on ERK1 (KINOMEscan)
T7 construct: purchased DiscoverX (San Diego, Calif.) scanMAX
T7 sequence (P27361 whole entry): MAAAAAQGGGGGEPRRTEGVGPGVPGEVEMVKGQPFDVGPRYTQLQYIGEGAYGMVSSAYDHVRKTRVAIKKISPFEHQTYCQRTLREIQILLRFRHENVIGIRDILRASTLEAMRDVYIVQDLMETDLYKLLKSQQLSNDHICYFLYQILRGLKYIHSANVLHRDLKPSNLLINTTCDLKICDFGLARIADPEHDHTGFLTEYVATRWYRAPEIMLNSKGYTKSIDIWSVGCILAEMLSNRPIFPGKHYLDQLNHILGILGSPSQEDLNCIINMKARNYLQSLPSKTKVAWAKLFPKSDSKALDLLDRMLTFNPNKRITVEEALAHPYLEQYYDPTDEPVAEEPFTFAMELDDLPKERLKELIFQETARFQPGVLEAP
Experimental: as §1

[1] = biological target: T8, GCN2 (Kin.Dom.2,S808G) (EIF2AK4) (Homo sapiens, UniProt Q9P2K8, S808G); settings: read-out: Inhibition of GCN2/EIF2AK4 (KINOMEscan)
T8 construct: Kin.Dom.2; purchased DiscoverX (San Diego, Calif.) scanMAX
T8 sequence (Q9P2K8 590-1001 S808G limits assumed): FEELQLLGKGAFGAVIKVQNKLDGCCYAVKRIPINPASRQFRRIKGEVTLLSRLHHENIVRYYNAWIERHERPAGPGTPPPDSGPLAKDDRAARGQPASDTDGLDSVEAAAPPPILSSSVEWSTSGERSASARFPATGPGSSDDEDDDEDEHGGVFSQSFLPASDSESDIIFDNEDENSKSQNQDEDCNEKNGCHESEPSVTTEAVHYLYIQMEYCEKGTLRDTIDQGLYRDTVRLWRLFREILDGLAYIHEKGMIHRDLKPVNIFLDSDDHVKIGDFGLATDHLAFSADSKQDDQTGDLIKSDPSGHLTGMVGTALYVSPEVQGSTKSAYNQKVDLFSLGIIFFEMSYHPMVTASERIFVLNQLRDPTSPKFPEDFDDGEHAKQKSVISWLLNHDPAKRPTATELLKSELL
Experimental: as §1, with “TR-FRET” for “Biochemical assays: Recombinant human EIF2AK3 (PERK) catalytic domain (amino acids 536-1116; Cat # PV5107), GFP-eIF2a (Cat # PV4809) substrate, and Terbium-labelled phospho-eIF2a antibody (Cat # PR8956B) were purchased from Invitrogen (Carlsbad, Calif.). HIS-SUMO-GCN2 catalytic domain (amino acids 584-1019) was expressed and purified from E. coli. TR-FRET”

T1 sequence (P12931 whole entry): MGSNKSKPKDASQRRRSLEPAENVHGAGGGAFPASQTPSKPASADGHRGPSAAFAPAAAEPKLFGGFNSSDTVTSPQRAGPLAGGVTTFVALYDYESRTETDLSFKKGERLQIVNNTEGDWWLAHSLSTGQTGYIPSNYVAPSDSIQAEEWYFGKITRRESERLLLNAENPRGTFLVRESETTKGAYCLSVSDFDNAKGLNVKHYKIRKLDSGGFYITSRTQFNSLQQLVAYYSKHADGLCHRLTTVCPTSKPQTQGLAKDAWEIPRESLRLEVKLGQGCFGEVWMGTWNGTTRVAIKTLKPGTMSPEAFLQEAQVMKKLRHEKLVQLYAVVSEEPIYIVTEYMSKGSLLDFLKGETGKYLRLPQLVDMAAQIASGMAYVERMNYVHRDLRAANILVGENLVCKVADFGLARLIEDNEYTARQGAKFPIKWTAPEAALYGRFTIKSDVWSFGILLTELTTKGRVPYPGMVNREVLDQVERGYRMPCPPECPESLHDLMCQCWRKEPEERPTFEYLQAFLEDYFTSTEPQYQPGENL

Q: Which results are given for `Cc1cccc(CC(=O)N2CCc3c2ccc(-c2cn(C)c4ncnc(N)c24)c3F)n1` [GSK2656157, reference compound]?
A: inhibition at 0.2 µM (SRC): 10%; inhibition at 2 µM (SRC): 45%; inhibition at 20 µM (SRC): 69%; inhibition at 0.2 µM (AKT3): 24%; inhibition at 2 µM (AKT3): 7%; inhibition at 20 µM (AKT3): 0%; inhibition at 0.2 µM (PIK3C2B): 0%; inhibition at 2 µM (PIK3C2B): 9%; inhibition at 20 µM (PIK3C2B): 22%; inhibition at 0.2 µM (ERK3 (MAPK6)): 0%; inhibition at 2 µM (ERK3 (MAPK6)): 16%; inhibition at 20 µM (ERK3 (MAPK6)): 0%; inhibition at 0.2 µM (ERK8 (MAPK15)): 0%; inhibition at 2 µM (ERK8 (MAPK15)): 3%; inhibition at 20 µM (ERK8 (MAPK15)): 6%; inhibition at 0.2 µM (S6K1 (RPS6KB1)): 0%; inhibition at 2 µM (S6K1 (RPS6KB1)): 30%; inhibition at 20 µM (S6K1 (RPS6KB1)): 56%; inhibition at 0.2 µM (ERK1 (MAPK3)): 0%; inhibition at 2 µM (ERK1 (MAPK3)): 17%; inhibition at 20 µM (ERK1 (MAPK3)): 0%; inhibition at 0.2 µM [1]: 7%; inhibition at 2 µM [1]: 13%; inhibition at 20 µM [1]: 79%

Q: With `Cc1cc(NC(=O)[C@H](O)c2cc(F)cc(F)c2)ccc1-c1cnc(N)c(C(=O)NC(C)C)c1` [LY4, 2-amino-5-[4-[[(2R)-2-(3,5-difluorophenyl)-2-hydroxy-acetyl]amino]-2-methyl-phenyl]-N-isopropyl-pyridine-3-carboxamide] as the compound, how does the inhibition at 0.2 µM (SRC) read?
A: 0%

Q: And the inhibition at 2 µM (SRC)?
A: 1%

Q: And the inhibition at 20 µM (SRC)?
A: 11%

Q: And the inhibition at 0.2 µM (AKT3)?
A: 0%

Q: And the inhibition at 2 µM (AKT3)?
A: 0%

Q: What about the inhibition at 20 µM (AKT3) of the same compound?
A: 13%

Q: And the inhibition at 0.2 µM (PIK3C2B)?
A: 40%

Q: And the inhibition at 2 µM (PIK3C2B)?
A: 39%

Q: And the inhibition at 20 µM (PIK3C2B)?
A: 94%

Q: What about the inhibition at 0.2 µM (ERK3 (MAPK6)) of the same compound?
A: 0%

Q: And the inhibition at 2 µM (ERK3 (MAPK6))?
A: 32%

Q: And the inhibition at 20 µM (ERK3 (MAPK6))?
A: 3%

Q: And the inhibition at 0.2 µM (ERK8 (MAPK15))?
A: 0%

Q: What about the inhibition at 2 µM (ERK8 (MAPK15)) of the same compound?
A: 0%

Q: What about the inhibition at 20 µM (ERK8 (MAPK15)) of the same compound?
A: 0%

Q: What about the inhibition at 0.2 µM (S6K1 (RPS6KB1)) of the same compound?
A: 31%

Q: And the inhibition at 2 µM (S6K1 (RPS6KB1))?
A: 0%

Q: What about the inhibition at 20 µM (S6K1 (RPS6KB1)) of the same compound?
A: 24%

Q: What about the inhibition at 0.2 µM (ERK1 (MAPK3)) of the same compound?
A: 2%

Q: And the inhibition at 2 µM (ERK1 (MAPK3))?
A: 18%

Q: And the inhibition at 20 µM (ERK1 (MAPK3))?
A: 0%

Q: And the inhibition at 0.2 µM [1]?
A: 0%

Q: What about the inhibition at 2 µM [1] of the same compound?
A: 0%

Q: And the inhibition at 20 µM [1]?
A: 28%
